From ChEMBL document CHEMBL1145526, “Synthesis of 11C-labelled (R)-OHDMI and CFMME and their evaluation as candidate radioligands for imaging central norepinephrine transporters with PET” (Bioorg Med Chem, 2007)
One block for each molecule: values may come before it.

Key:
Cynomolgus monkey [1] = assay: Ratio of drug level in thalamus to striatum in cynomolgus monkey; format: ADME, organism-based, Macaca fascicularis; conditions: in vivo
[2] = molecular target: Sodium-dependent noradrenaline transporter (Homo sapiens, UniProt P23975)
Sodium-dependent noradrenaline transporter, sequence (P23975 whole entry): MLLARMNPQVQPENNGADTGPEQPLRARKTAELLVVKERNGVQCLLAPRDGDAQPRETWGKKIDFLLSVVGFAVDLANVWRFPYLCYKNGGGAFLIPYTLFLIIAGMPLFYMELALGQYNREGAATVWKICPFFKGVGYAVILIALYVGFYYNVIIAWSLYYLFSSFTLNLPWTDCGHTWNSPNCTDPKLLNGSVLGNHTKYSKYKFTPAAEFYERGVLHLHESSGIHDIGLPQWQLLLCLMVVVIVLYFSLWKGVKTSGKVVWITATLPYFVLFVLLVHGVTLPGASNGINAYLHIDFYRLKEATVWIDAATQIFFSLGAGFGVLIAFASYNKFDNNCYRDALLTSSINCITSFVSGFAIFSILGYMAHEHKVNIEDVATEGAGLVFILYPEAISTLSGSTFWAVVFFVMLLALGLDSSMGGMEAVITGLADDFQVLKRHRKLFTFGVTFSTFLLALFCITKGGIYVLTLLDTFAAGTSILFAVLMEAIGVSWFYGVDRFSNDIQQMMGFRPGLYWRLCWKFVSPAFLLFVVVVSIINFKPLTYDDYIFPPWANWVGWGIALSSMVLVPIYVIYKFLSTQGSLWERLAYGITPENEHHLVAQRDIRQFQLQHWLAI

Cynomolgus monkey [3] = assay: Ratio of drug level in cerebellum to mesencephalon in cynomolgus monkey at 1.35 mCi after 93 mins; format: ADME, organism-based, Macaca fascicularis; conditions: in vivo, 1.55 h
Brain [4] = assay: Drug uptake in cynomolgus monkey brain assessed as radio activity at 1.35 mCi after 42 mins; format: ADME, tissue-based, Macaca fascicularis; conditions: in vivo, 0.7 h
Cynomolgus monkey [5] = assay: Ratio of drug level in cerebellum to occipital cortex in cynomolgus monkey at 1.35 mCi after 93 mins; format: ADME, organism-based, Macaca fascicularis; conditions: in vivo, 1.55 h
Cynomolgus monkey [6] = assay: Ratio of drug level in cerebellum to locus coreuleus in cynomolgus monkey at 1.35 mCi after 93 mins; format: ADME, organism-based, Macaca fascicularis; conditions: in vivo, 1.55 h
Cynomolgus monkey [7] = assay: Ratio of drug level in cerebellum to thalamus in cynomolgus monkey at 1.35 mCi after 93 mins; format: ADME, organism-based, Macaca fascicularis; conditions: in vivo, 1.55 h
Cynomolgus monkey [8] = assay: Ratio of drug level in cerebellum to striatum in cynomolgus monkey at 1.35 mCi after 93 mins; format: ADME, organism-based, Macaca fascicularis; conditions: in vivo, 1.55 h
Brain [9] = assay: Drug uptake in cynomolgus monkey brain assessed as radio activity at 1.35 mCi after 24 mins; format: ADME, tissue-based, Macaca fascicularis; conditions: in vivo, 0.4 h
Cynomolgus monkey [10] = assay: Ratio of drug level in striatum to lower brainstem in cynomolgus monkey at 1.41 mCi after 93 mins; format: ADME, organism-based, Macaca fascicularis; conditions: in vivo, 1.55 h
Cynomolgus monkey [11] = assay: Ratio of drug level in striatum to thalamus in cynomolgus monkey at 1.41 mCi after 93 mins; format: ADME, organism-based, Macaca fascicularis; conditions: in vivo, 1.55 h
Cynomolgus monkey [12] = assay: Ratio of drug level in striatum to occipital cortex in cynomolgus monkey at 1.41 mCi after 93 mins; format: ADME, organism-based, Macaca fascicularis; conditions: in vivo, 1.55 h
Cynomolgus monkey [13] = assay: Ratio of drug level in striatum to cerebellum in cynomolgus monkey at 1.41 mCi after 93 mins; format: ADME, organism-based, Macaca fascicularis; conditions: in vivo, 1.55 h
Brain [14] = assay: Drug uptake in cynomolgus monkey brain assessed as radio activity at 1.41 mCi after 80 mins; format: ADME, tissue-based, Macaca fascicularis; conditions: in vivo
Cynomolgus monkey [15] = assay: Ratio of drug level in NET-rich thalamus to NET-poor striatum in cynomolgus monkey; format: ADME, organism-based, Macaca fascicularis; conditions: in vivo
Cynomolgus monkey [16] = assay: Ratio of drug level in striatum to mesencephalon in cynomolgus monkey at 1.41 mCi after 93 mins; format: ADME, organism-based, Macaca fascicularis; conditions: in vivo, 1.55 h

Ratio (Cynomolgus monkey [1]): 1.5
Compound: [11CH3]NC[C@@H](O)CC12CCC(c3ccccc31)c1ccccc12

Ki [2]: 10.8 nM
Compound: COc1ccc(F)cc1C[C@](O)(C1CCCC1)[C@@H]1CNCCO1

Ratio (Cynomolgus monkey [3]): 1.2
Ratio (Brain [4]): 3.5 %ID
Ratio (Cynomolgus monkey [5]): 1.3
Ratio (Cynomolgus monkey [6]): 1.3
Ratio (Cynomolgus monkey [7]): 1.35
Ratio (Cynomolgus monkey [8]): 1.2
Drug uptake (Brain [9]): 3.5 %ID
Compound: [11CH3]Oc1ccc(F)cc1C[C@](O)(C1CCCC1)[C@@H]1CNCCO1

Ratio (Cynomolgus monkey [10]): 1.2
Ratio (Cynomolgus monkey [11]): 1.35
Ratio (Cynomolgus monkey [12]): 1.35
Ratio (Cynomolgus monkey [13]): 1
Drug uptake (Brain [14]): 1.1 %ID
Ratio (Cynomolgus monkey [15]): 1.35
Ratio (Cynomolgus monkey [16]): 1.2
Compound: [11CH3]NC[C@@H](O)CN1c2ccccc2CCc2ccccc21

Ki [2]: 8.29 nM
Compound: CNC[C@@H](O)CN1c2ccccc2CCc2ccccc21

Ki [2]: 7.93 nM
Compound: COc1ccccc1O[C@@H](c1ccccc1)[C@@H]1CNCCO1
